Source: patent US20080139664A1, “ANTI-GLYCATION AGENTS FOR PREVENTING AGE-, DIABETES-, AND SMOKING-RELATED COMPLICATIONS” (NATIONAL RESEARCH COUNCIL OF CANADA, priority 2001, published 2008)
Counter-ions that a name gives are not always drawn. Like-named read-outs stand apart in the source and are kept apart here.

System: bovine serum albumin (BSA)
Assay: Maillard fluorescence-based assay of AGEs formation, IC50 determination (BSA + D-ribose)
[1] = inhibition of Maillard fluorescence development, 0.075 mM BSA, 50 mM D-ribose, 37° C., 5 days

| Compound | IC50 [1] [µM] | IC50 [µM] |
| --- | --- | --- |
| C[C@H](N)[C@H](O)c1ccc(O)c(O)c1 [Corbadrine] | 52 |  |
| C=CCN1CC[C@]23c4c5ccc(O)c4O[C@H]2/C(=N/N=C2\CC[C@@]4(O)[C@H]6Cc7ccc(O)c8c7[C@@]4(CCN6CC=C)[C@H]2O8)CC[C@@]3(O)[C@H]1C5 [Naloxonazine] | 1700 |  |
| O=c1c(O)c(-c2ccc(O)c(O)c2)oc2cc(O)cc(O)c12 [Quercetin] | 130 |  |
| CCOC(=O)[C@@H](N)CS [L-Cysteine ethyl ester] | > 4000 |  |
| CC(CCc1ccccc1)NC(C)C(O)c1ccc(O)cc1 (stereo not drawn) [Nylidrin] | 1800 |  |
| CC[C@@]1(O)C[C@H](O[C@H]2C[C@H](N(C)C)[C@H](O[C@H]3C[C@H](O)[C@H](O[C@H]4CCC(=O)[C@H](C)O4)[C@H](C)O3)[C@H](C)O2)c2c(cc3c(c2O)C(=O)c2c(O)cccc2C3=O)[C@H]1C(=O)OC [Aclarubicin] | 2500 |  |
| CC(CCc1ccccc1)NC(CO)c1ccc(O)c(O)c1 (stereo not drawn) [3,4-Dihydroxy-1-[α-(1-methyl-3-phenyl-propylamino)-β-hydroxyethyl]benzene hydrochloride] | 350 |  |
| O=[N+]([O-])c1ncc[nH]1 [2-Nitroimidazole] | > 4000 |  |
| O=c1c2ccccc2[se]n1-c1ccccc1 [Ebselen] | > 4000 |  |
| O=[N+]([O-])c1ccc(O)cc1 [p-Nitrophenol] | > 4000 |  |
| COc1ccc(-c2coc3cc(O)cc(O)c3c2=O)cc1 [Biochanin A] | 290 |  |
| O=c1c(O)c(-c2ccc(O)c(O)c2)oc2ccccc12 [3,3′,4′-Trihydroxyflavone] | 1800 |  |
| O=c1c(-c2ccc(O)cc2)coc2cc(O)cc(O)c12 [Genistein] | 450 |  |
| NC(=O)c1cc([N+](=O)[O-])cc([N+](=O)[O-])c1 [3,5-Dinitrobenzamide] | 780 |  |
| Cc1cc(-c2ccc(/N=N/c3ccc4c(S(=O)(=O)O)cc(S(=O)(=O)O)c(N)c4c3O)c(C)c2)ccc1/N=N/c1ccc2c(S(=O)(=O)O)cc(S(=O)(=O)O)c(N)c2c1O [Evans blue] | 3700 |  |
| Cc1c(C)c2c(c(C)c1O)CCC(C)(C(=O)O)O2 (stereo not drawn) [Trolox C] | 470 |  |
| CC(=O)Nc1ncc([N+](=O)[O-])s1 [Aminitrozole] | 82 |  |
| COCC(N)c1ccc(O)c(O)c1 (stereo not drawn) [3,4-Dihydroxy-1-[(α-amino-β-methoxy)ethyl]benzene] | 78 |  |
| COC(CNC(C)C)c1ccc(O)c(O)c1 (stereo not drawn) [3,4-Dihydroxy-1-[α-isopropylamino-β-methoxy)ethyl]benzene] | 78 |  |
| Pyrithioxin | > 4000 |  |
| D,L-Epinephrine |  | 15 |
| COC1=C[C@@H]2[C@@H]3Cc4ccc(OC)c(O)c4[C@]2(CCN3C)CC1=O [Sinomenine] | > 4000 |  |
| O=c1cc(-c2cccc(O)c2)oc2cc(O)c(O)cc12 [6,7,3′-Trihydroxyflavone] | 940 |  |
| O=[N+]([O-])c1cc(I)c(O)c(I)c1 [2,6-Diiodo-4-nitrophenol] | 1300 |  |
| Cc1cc2c(C(C)C)c(O)c(O)c(C=O)c2c(O)c1-c1c(C)cc2c(C(C)C)c(O)c(O)c(C=O)c2c1O [Gossypol] | 110 |  |
| O=C1CCN(c2ccccc2)N1 [Phenidone] | 1300 |  |
| Cc1cc2c(OCC(CNC(C)(C)C)OC(=O)c3ccccc3)cccc2[nH]1 (stereo not drawn) [Bopindolol] | 170 |  |
